{"source": "patent US6528481B1", "about": "“NG2/HM proteoglycan-binding peptides that home to angiogenic vasculature and related methods” (The Burnam Institute, priority 1999, dated 2003)", "key": {"NG2Δ3 [1]": {"test_system": "NG2Δ3", "sequence (Q00657 30-1450 limits assumed, stated change not applied)": "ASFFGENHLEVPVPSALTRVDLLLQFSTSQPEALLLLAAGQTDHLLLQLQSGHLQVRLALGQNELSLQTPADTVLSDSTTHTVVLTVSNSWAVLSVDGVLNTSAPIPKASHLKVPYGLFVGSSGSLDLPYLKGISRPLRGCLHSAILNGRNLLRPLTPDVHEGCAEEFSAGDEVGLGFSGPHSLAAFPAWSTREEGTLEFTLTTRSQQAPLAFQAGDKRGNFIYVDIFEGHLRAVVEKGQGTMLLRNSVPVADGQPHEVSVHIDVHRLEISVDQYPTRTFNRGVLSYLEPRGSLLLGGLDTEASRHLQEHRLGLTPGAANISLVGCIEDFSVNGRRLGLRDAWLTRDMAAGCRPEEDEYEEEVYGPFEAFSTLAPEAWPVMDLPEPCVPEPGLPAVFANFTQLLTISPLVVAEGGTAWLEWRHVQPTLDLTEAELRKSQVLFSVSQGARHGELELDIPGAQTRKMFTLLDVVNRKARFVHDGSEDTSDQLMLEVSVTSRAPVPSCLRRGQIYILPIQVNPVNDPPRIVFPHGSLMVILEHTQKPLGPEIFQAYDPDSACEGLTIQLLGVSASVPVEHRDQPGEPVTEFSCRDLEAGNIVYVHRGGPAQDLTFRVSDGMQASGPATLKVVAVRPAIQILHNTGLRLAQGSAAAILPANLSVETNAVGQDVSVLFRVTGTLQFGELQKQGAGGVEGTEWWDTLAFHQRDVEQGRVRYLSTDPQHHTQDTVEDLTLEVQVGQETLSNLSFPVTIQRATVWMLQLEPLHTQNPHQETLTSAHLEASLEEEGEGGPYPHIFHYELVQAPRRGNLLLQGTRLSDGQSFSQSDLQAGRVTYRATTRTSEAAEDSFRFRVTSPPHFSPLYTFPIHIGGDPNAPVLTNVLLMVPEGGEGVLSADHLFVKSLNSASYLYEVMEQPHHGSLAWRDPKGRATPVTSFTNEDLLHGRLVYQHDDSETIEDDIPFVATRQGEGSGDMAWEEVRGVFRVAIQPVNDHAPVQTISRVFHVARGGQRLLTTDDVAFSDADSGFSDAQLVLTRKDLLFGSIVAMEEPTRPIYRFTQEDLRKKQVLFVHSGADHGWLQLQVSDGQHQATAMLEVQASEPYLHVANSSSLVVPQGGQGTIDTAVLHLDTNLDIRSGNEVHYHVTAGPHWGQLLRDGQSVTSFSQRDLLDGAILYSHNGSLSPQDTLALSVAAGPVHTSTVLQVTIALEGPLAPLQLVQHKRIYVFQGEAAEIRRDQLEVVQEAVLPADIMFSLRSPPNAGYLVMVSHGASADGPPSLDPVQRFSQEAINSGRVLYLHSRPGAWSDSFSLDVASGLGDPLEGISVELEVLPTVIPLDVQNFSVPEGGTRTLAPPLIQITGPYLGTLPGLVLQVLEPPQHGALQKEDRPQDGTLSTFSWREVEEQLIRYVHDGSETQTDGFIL", "experiment": "Inhibition of phage binding to NG2Δ3-coated wells by GST-peptide fusion proteins", "set-up": "species or system rat", "conditions": "increasing concentrations of GST protein; for effect on binding of TAASGVRSMH-phage to NG2 coated wells: FIG. 3A; for effect on binding of LTLRWVGLMS-phage to NG2: FIG. 3B", "procedure": "Binding of individual phage clones or an aliquot of unselected phage library control to NG2 or BSA-coated control wells was performed as described above using 1×10^9 input phage/well. For competition studies, phage incubations were performed in the presence of increasing concentrations of soluble NG2 or GST-fusion proteins.\nGST-fusion proteins containing the decapeptide inserts were constructed as previously described (Rajotte et al., J. Clin. Invest. 102:430-437 (1998)). Briefly, peptide inserts were amplified by polymerase chain reaction (PCR) from the phage using specific M13 primers. PCR products were then digested with BamHI and EcoRI and inserted into the pGEX2TK vector. Fusion proteins were produced and purified according to the manufacturer's instructions (Pharmacia Biotech Inc.; Piscataway N.J.).\nGST-peptide fusion proteins containing one of the two NG2-binding motifs, TAASGVRSMH (SEQ ID NO:1) or LTLRWVGLMS (SEQ ID NO:2), were tested for their ability to inhibit binding of phage to NG2Δ3-coated wells. Purified TAASGVRSMH-phage and LTLRWVGLMS-phage were incubated in NG2Δ3-coated wells in the presence of increasing concentrations of GST-TAASGVRSMH fusion protein, GST-LTLRWVGLMS fusion protein, or GST alone, and phage binding was quantified. Results shown in FIG. 3 are representative of three independent experiments and error bars show S.E.M. of the mean from triplicate platings of duplicate wells. The differences indicated by “*” are considered highly significant by student t test (p<0.01)."}, "NG2Δ3 [2]": {"test_system": "NG2Δ3", "experiment": "Solid-phase assay: binding of soluble NG2Δ3 to immobilized GST-peptide fusion proteins", "set-up": "species or system rat", "conditions": "soluble fusion protein, increasing concentrations (50 mg in FIG. 4A)", "procedure": "Solid-phase assays were performed as described previously (Burg et al., supra, 1996). Briefly, fusion proteins (2 μg/well) were coated onto microtiter wells overnight at 4° C. Wells were blocked with 2% BSA in PBS and incubated with soluble NG2Δ3 (1 μg/well) for 2 hr at room temperature. After washing, wells were then incubated with an anti-NG2 polyclonal antibody followed by washing and incubation with an ^125I-labeled goat anti-rabbit IgG. After final washing, bound radioactivity was determined using a gamma counter. For competition studies, soluble NG2Δ3 was preincubated 15 min with increasing concentrations of soluble GST-fusion proteins prior to incubation on wells coated with GST-fusion protein.\nThe ability of soluble NG2 to bind to GST-TAASGVRSMH and GST-LTLRWVGLMS was tested by using a solid phase assay. Purified NG2Δ3 was incubated in wells coated with GST-TAASGVRSMH or GST-LTLRWVGLMS in the absence of inhibitor, or after preincubation with 50 mg of soluble GST-TAASGVRSMH, GST-LTLRWVGLMS or GST alone. Binding of NG2Δ3 was determined, and the results shown in FIG. 4 are representative of three independent experiments. Error bars show S.E.M. of the mean from triplicate wells. The differences indicated by “*” are considered significant by student t test (p<0.05). The differences indicated by “**” are considered highly significant by student t test (p<0.01)."}, "[3]": {"test_system": "recombinant fragment of rat NG2 (NG2ECΔ3)", "sequence (Q00657 30-1450 limits assumed, stated change not applied)": "as above", "experiment": "Biopanning of linear decapeptide phage library on NG2-coated wells", "type": "binding", "conditions": "for selection/enrichment of NG2-binding sequences in in vitro panning: five successive rounds on NG2-coated wells", "description": "To identify peptide motifs capable of interacting with NG2, recombinant NG2 fragments consisting of the N-terminal two-thirds of the extracellular domain of NG2 proteoglycan were generated. Briefly, a recombinant fragment of rat NG2 consisting of the N-terminal two-thirds of the extracellular domain (NG2ECΔ3) was purified from transfected human embryonic kidney 293 cells as described (Tillet et al., J. Biol. Chem. 272:10769-10776 (1997)). Recombinant NG2 diluted in phosphate buffered saline (PBS) (2 μg NG2/well) was coated onto microtiter wells overnight at 4° C. Wells were blocked with 2% bovine serum albumin (BSA) in PBS for 1 hr at room temperature. For biopanning, phage (1×10^11 TU) from a linear decapeptide phage library diluted in 2% BSA were added to NG2-coated wells and incubated for 2 hr at room temperature. Wells were washed with PBS containing 0.1% TWEEN-20 to remove unbound phage. Bound phage were recovered by direct infection of wells with exponentially growing K91kan bacteria, followed by phage amplification overnight at 37° C. Amplified phage were then subjected to four subsequent rounds of selection on NG2-coated wells. Phage binding was quantified by counting colonies from aliquots of phage-infected bacteria removed from NG2-coated wells. Phage were sequenced from randomly selected clones as described previously (Rajotte et al., J. Clin. Invest. […]:430-437 (1998)).\nTo identify peptide motifs capable of interacting with NG2, the recombinant NG2 fragments were used to select phage clones from a random decapeptide phage display library. Bound phage were isolated and used for successive rounds of panning on the NG2 proteoglycan. Five successive rounds of biopanning were performed. Random clones were sequenced from rounds II to V. Sequence analysis from the final three rounds of panning are shown in Table 1. In parentheses is the number of clones displaying the same sequence. The sequences shown in column III of Table 1 are referenced as SEQ ID NOS:1-15."}, "NG2": {"biological_target": "NG2 (Rattus norvegicus, UniProt Q00657)", "sequence (Q00657 30-2326)": "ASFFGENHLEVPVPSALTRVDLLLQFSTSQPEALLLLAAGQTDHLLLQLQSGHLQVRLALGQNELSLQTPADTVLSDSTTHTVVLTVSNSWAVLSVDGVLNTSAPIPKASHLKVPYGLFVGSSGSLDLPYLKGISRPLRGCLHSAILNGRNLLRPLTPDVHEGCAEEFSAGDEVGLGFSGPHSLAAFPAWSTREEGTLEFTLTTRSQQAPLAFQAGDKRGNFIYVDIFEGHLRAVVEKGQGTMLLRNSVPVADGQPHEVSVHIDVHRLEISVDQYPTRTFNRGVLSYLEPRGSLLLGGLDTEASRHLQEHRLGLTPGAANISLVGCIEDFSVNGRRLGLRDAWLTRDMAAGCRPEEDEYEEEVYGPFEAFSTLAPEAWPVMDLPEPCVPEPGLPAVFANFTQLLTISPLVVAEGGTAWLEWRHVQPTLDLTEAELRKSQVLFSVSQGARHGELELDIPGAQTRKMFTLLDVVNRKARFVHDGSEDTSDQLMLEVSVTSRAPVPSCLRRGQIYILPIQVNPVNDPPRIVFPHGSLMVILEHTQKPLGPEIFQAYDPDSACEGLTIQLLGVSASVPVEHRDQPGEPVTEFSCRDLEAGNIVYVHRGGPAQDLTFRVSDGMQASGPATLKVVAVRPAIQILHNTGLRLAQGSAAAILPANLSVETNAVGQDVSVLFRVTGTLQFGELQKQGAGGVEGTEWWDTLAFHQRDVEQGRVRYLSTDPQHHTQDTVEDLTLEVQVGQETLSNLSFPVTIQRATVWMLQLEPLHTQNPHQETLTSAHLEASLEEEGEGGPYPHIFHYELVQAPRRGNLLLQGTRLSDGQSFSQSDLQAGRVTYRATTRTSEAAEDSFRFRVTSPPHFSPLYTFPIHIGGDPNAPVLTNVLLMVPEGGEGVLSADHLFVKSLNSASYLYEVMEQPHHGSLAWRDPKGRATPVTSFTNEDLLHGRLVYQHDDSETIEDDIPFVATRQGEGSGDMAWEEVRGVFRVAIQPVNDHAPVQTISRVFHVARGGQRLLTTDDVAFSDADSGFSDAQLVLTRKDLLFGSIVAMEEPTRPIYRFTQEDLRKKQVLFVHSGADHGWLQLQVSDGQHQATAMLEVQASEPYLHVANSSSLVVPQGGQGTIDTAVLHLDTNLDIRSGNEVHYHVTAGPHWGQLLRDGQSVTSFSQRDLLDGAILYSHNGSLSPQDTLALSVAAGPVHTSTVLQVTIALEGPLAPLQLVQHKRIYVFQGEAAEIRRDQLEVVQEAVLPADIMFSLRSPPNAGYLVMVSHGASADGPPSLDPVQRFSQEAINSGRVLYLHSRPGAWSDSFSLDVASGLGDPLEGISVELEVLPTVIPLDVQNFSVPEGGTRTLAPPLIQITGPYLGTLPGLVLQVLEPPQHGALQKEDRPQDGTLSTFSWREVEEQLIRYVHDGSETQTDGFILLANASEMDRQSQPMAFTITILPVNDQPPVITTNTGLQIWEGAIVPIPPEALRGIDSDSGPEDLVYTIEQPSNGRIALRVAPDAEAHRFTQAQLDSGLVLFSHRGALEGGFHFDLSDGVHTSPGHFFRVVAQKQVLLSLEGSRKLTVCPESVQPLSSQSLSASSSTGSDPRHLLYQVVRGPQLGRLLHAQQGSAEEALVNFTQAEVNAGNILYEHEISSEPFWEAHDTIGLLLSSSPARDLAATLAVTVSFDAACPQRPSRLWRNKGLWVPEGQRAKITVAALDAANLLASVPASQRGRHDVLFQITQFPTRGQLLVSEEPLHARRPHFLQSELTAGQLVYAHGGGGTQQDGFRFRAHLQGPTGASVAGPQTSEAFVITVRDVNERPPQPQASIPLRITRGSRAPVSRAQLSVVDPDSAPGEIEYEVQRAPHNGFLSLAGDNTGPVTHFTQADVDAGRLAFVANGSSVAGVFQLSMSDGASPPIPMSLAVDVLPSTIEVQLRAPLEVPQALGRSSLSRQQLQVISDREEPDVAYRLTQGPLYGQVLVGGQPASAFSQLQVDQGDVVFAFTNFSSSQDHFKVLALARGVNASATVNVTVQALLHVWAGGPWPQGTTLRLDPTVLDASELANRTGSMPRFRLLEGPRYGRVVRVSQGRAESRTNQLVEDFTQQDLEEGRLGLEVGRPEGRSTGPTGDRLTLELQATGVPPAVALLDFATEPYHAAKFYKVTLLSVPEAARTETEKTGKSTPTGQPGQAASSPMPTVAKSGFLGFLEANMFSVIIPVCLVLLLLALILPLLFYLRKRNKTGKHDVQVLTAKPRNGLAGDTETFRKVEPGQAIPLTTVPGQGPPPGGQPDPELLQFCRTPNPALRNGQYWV", "experiment": "Binding of peptide to NG2 (no method given)"}}, "note": "Where no end group is shown, it is not given here."}
{"substance": "GST-LTLRWVGLMS: GST-fusion protein containing the decapeptide insert LTLRWVGLMS ({GST}-LTLRWVGLMS)", "values": [{"measurement": "effect on binding of TAASGVRSMH-phage to NG2 coated wells", "setting": "NG2Δ3 [1]", "value": "inhibited"}, {"measurement": "effect on binding of LTLRWVGLMS-phage to NG2", "setting": "NG2Δ3 [1]", "value": "inhibited the binding"}, {"measurement": "effect of preincubation on binding of NG2 to wells coated with GST-TAASGVRSMH", "setting": "NG2Δ3 [2]", "value": "inhibited binding"}]}
{"substance": "control GST protein: control GST protein containing no peptide insert [reference compound]", "values": [{"measurement": "effect on binding of TAASGVRSMH-phage to NG2 coated wells", "setting": "NG2Δ3 [1]", "value": "little effect on binding"}, {"measurement": "effect on binding of LTLRWVGLMS-phage to NG2", "setting": "NG2Δ3 [1]", "value": "no significant effect on the binding"}]}
{"substance": "GGGTRAGMKY", "values": [{"measurement": "number of clones displaying the same sequence", "setting": "[3]; panning round III", "value": "GGGTRAGMKY (SEQ ID NO: 3) (2)"}]}
{"substance": "CLSGSLSC", "values": [{"measurement": "binding to NG2", "setting": "NG2", "value": "found to bind to NG2"}]}
{"substance": "LTLRWVGLMS", "values": [{"measurement": "selection/enrichment of NG2-binding sequences in in vitro panning", "setting": "[3]", "value": "specifically enriched in later rounds of in vitro panning"}, {"measurement": "number of clones displaying the same sequence", "setting": "[3]; panning round IV", "value": "LTLRWVGLMS (10)"}, {"measurement": "number of clones displaying the same sequence", "setting": "[3]; panning round V", "value": "LTLRWVGLMS (SEQ ID NO: 2) (7)"}]}
{"substance": "GST-TAASGVRSMH: GST-fusion protein containing the decapeptide insert TAASGVRSMH ({GST}-TAASGVRSMH)", "values": [{"measurement": "effect on binding of TAASGVRSMH-phage to NG2 coated wells", "setting": "NG2Δ3 [1]", "value": "dose-dependent decrease in binding"}, {"measurement": "effect on binding of LTLRWVGLMS-phage to NG2", "setting": "NG2Δ3 [1]", "value": "inhibited the binding"}, {"measurement": "effect of preincubation on binding of NG2 to wells coated with GST-TAASGVRSMH", "setting": "NG2Δ3 [2]", "value": "dose-dependent decrease in binding"}]}
{"substance": "TAASGVRSMH", "values": [{"measurement": "selection/enrichment of NG2-binding sequences in in vitro panning", "setting": "[3]", "value": "specifically enriched in later rounds of in vitro panning"}, {"measurement": "number of clones displaying the same sequence", "setting": "[3]; panning round IV", "value": "TAASGVRSMH (16)"}, {"measurement": "number of clones displaying the same sequence", "setting": "[3]; panning round V", "value": "TAASGVRSMH (SEQ ID NO: 1) (8)"}]}
